Data as given in patent US20240218073A1, “IMMUNOMODULATORY ANTI-CD73 ANTIBODIES AND USES THEREOF” (Corvus Pharmaceuticals, Inc., priority 2019, published 2024).

Legend:
B lymphocytes = assay: B cell activation and maturation markers by flow cytometry in vitro; type: cell-based, human
Method: FIG. 6 are bar graphs showing CPI-006 directly activates B lymphocytes. Purified B cells were incubated overnight with 10 μg/mL human IgG1 isotype control or CPI-006 or anti-IgM microbeads, a positive control for BCR stimulation. Expression of activation markers CD69, CD83, CD86, CD25 or MHC-II was measured by flow cytometry. Mean fluorescence intensity (MFI) was determined for each activation marker and was normalized to the untreated condition for each donor. The figure legend from top to bottom is representative of each group of four bars from left to right. (N=3-5 donors).
FIG. 7 illustrates expression of CD69 on B cells (CD19+CD3−) as measured by flow cytometry and reported by MFI. Human PBMCs were incubated overnight with 10 μg/mL CPI-006 with or without NECA over a range of concentrations or 10 μM APCP. Expression of CD69 on B cells (CD19+CD3−) was measured by flow cytometry and MFI is reported. Error bars represent mean±SD. *p<0.05, **p<0.01 as determined by t-test.
Human B cells were stimulated in vitro with CPI-006 or CPX-016 (1 ug/ml) or an isotype control for 3 days. IgD and CD27 expression were evaluated by flow cytometry. The mean fluorescence intensity (MFI) of each marker was determined in FlowJo and normalized to CPX-016. N=3 donors shown. For each group of two bars, left bar represents treatment with […] and right bar represents treatment with CPX-006.
FIG. 13A: Purified B cells from 3-5 healthy donors were incubated overnight with human IgG1 isotype control or CPI-006 (10 μg/mL) or anti-IgM microbeads, a positive control for BCR stimulation. Expression of activation markers CD69, CD83, CD86, or MHC-II was measured by flow cytometry. […] Mean fluorescence intensity (MFI) was determined for each marker and was normalized to the untreated or isotype control for each donor. […] Expression of CD69 (MFI) was measured by flow cytometry. […] CD69 and CD73 were measured on B cells by flow cytometry. […] Expression of CD69 on B cells (CD19^POSCD3^NEG) was measured by flow cytometry. […]

[1] = tested on: circulating CD73^POS B cells; assay: Phase 1 trial in cancer patients: peripheral blood immunophenotyping by flow cytometry; type: in vivo, human; conditions: ciforadenant monotherapy
cellular CD73 = molecular target: T1, cellular CD73 (Homo sapiens, UniProt P21589); assay: CD73 catalytic activity on MDA-MB-231 cells (phosphate released from AMP); conditions: 250 μM AMP, baseline from CRISPR CD73 knockout cells and 1 mM APCP
T1 sequence (P21589 27-549): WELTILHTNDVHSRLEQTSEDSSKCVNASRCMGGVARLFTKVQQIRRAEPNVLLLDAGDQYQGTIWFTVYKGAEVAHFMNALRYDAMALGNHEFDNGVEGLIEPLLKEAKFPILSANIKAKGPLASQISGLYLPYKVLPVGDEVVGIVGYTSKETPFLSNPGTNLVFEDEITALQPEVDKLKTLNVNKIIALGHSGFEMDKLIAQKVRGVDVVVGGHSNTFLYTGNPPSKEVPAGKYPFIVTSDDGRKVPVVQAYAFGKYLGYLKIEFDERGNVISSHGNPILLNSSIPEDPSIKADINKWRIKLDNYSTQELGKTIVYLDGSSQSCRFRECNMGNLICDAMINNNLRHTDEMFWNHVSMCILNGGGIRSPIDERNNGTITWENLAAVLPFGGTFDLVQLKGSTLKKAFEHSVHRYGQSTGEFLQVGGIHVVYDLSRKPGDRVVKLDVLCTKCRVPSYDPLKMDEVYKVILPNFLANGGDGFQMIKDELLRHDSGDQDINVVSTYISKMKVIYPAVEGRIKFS

[2] = molecular target: T2, CD73 expressed on primary human peripheral blood mononuclear cells (Homo sapiens, UniProt P21589); assay: CD73 enzymatic activity on primary human PBMCs (AMP remaining, CellTiterGlo); conditions: 300 nM antibody, 4 hours incubation with AMP, 9 donors
T2 sequence (P21589 27-549): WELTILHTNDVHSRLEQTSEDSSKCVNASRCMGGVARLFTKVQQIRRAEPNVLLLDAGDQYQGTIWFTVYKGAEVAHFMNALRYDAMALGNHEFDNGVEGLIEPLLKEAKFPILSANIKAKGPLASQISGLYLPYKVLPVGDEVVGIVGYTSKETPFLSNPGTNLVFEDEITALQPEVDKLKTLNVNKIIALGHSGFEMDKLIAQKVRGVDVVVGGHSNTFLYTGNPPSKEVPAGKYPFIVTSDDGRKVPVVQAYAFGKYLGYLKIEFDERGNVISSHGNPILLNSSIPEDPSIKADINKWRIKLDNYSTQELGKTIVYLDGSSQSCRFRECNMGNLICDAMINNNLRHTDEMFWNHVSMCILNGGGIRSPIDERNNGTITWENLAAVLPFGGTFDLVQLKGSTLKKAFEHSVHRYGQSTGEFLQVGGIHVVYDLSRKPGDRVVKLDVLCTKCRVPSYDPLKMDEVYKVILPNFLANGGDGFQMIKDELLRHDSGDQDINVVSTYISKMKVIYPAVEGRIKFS

T cells = assay: T cell proliferation of anti-CD3/anti-CD28 activated PBMCs in the presence of AMP; type: cell-based, human; conditions: 500 nM antibody, 13 donors
Method: FIG. 12A: CD73 catalytic activity was measured with MDA-MB-231 cells or MDA-MB-231 CD73 CRISPR cells in the presence of CPI-006, oleclumab, or 1 mM APCP by adding 250 μM AMP and measuring phosphate levels in the cell culture supernatant. FIG. 12B: Human PBMCs were incubated with AMP in the presence of CPI-006, oleclumab, or isotype control antibody at the saturating concentration of 300 nM. After 4 hours of incubation, the AMP remaining in the supernatant was quantified using the CellTiterGlo assay as described in the Methods. Percentage of inhibition was plotted. Data represent 9 individual donors and error bars represent mean±SD. ****p<0.0001 as determined by t-test. FIG. 12C: Human PBMCs were activated with anti-CD3/anti-CD28 in the presence of AMP and a range of doses of CPI-006, oleclumab, or isotype control antibody. T cell proliferation was assessed by flow cytometry. T cell proliferation for 13 donors treated with 500 nM CPI-006 or oleclumab or 890 nM isotype control. Error bars represent mean±SD. *p<0.05, ***p<0.001, and ****p<0.0001 as determined by t-test. […] After 4 days in culture, IFNg levels in the supernatant were measured by AlphaLISA (Perkin Elmer). […] Error bars represent mean±SD. *p<0.05 and **p<0.01 as determined by t-test. […]

human CD73 = molecular target: T3, human CD73 (human, UniProt P21589 27-549); assay: bio-layer interferometry (Octet HTX, 25 C; antibody on anti-human IgG Fc capture sensors, antigen in solution from 300 nM, 1:1 model)
T3 construct: also called CD73 antigen; 5'-nucleotidase
T3 sequence (looked up): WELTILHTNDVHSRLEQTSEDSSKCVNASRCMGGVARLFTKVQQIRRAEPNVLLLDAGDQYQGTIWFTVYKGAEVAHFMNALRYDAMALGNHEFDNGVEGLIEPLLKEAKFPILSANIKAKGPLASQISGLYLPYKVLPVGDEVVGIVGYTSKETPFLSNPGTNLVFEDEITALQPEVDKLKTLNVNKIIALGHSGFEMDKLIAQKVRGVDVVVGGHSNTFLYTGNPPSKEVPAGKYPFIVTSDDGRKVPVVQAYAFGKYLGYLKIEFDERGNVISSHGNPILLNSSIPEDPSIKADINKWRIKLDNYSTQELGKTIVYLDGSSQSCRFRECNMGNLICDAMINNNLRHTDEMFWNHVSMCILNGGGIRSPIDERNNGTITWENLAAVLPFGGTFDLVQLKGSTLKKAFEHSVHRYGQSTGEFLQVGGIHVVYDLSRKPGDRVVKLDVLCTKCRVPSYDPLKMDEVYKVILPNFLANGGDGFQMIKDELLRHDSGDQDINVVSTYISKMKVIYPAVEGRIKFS

In the case of CCNC(=O)[C@H]1O[C@@H](n2cnc3c(N)ncnc32)[C@H](O)[C@@H]1O [NECA, 5′-(N-ethylcarboxamido)adenosine, reference compound], the “effect on induction of activation markers by CPI-006” value (B lymphocytes; human PBMCs, CPI-006 10 μg/mL overnight, NECA over a range of concentrations) is reported as “did not block the induction of activation markers by CPI-006”.

For Cc1ccc(-c2nc(N)nc3c2nnn3Cc2cccc(CO[C@H]3CCOC3)n2)o1 [ciforadenant], the “B cell numbers or immunophenotype” value [1] was “no changes in B cell numbers or immunophenotype”.

For “oleclumab: another anti-CD73 antibody that binds a non-overlapping epitope; expressed as human lambda/IgG1-TM antibody”, the “CD73 activity (free phosphate levels generated upon conversion of AMP to adenosine)” value (cellular CD73) was “only partially reduced CD73 activity”, the “enzymatic activity of CD73 on PBMCs” value [2] was “partial effect on enzymatic activity” and the T cell proliferation (T cells) was “restored T cell proliferation in a subset of donors but did not reach the magnitude of the CPI-006 response”. The “B cell activation (CD69 expression) by other anti-CD73 antibodies” value (B lymphocytes; antibodies that do not cross-block CPI-006) was “fail to induce activation”.

B1: CPI-006 (antibody, human IgG1, kappa, N297Q, V domains shown)
VH: QVQLVQSGAEVEKPGASVKVSCKASGYTFTSYWITWVRQAPGQGLEWMGDIYPGSGNTNYNEKFKTRVTITADKSTSTAYMELSSLRSEDTAVYYCAKEGGLTTEDYALDYWGQGTLVTVSS
VL: EIVLTQSPATLSLSPGERATLSCRASKNVSTSGYSYMHWYQQKPGQAPRLLIYLASNLESGIPPRFSGSGYGTDFTLTINNIESEDAAYYFCQHSRELPFTFGQGTKVEIKR
For B1, the Kd (human CD73) was 0.2 nM.

B2: CPI-006 immunoglobulin Fab fragments: Fab fragments of CPI-006 prepared using the Pierce Fab Preparation kit (antibody, chains of the INN, looked up, V domains shown)
VH: QVQLVQSGAEVEKPGASVKVSCKASGYTFTSYWITWVRQAPGQGLEWMGDIYPGSGNTNYNEKFKTRVTITADKSTSTAYMELSSLRSEDTAVYYCAKEGGLTTEDYALDYWGQGTLVTVSS
VL: EIVLTQSPATLSLSPGERATLSCRASKNVSTSGYSYMHWYQQKPGQAPRLLIYLASNLESGIPPRFSGSGYGTDFTLTINNIESEDAAYYFCQHSRELPFTFGQGTKVEIK
modifications: Fab
notes: Fab fragments of CPI-006 prepared using the Pierce Fab Preparation kit
In the case of B2, the “expression levels of CD69 with Fab fragments” value (B lymphocytes; purified B cells, overnight, equimolar to 10 μg/mL CPI-006) is reported as “minimal effect on expression levels of CD69”.
